{
  "source": "patent US20260345609A1",
  "about": "“METHODS FOR PROMOTING PERSISTENCE OF CELL THERAPY” (Legend Biotech Ireland Limited, priority 2022, published 2026)",
  "format_in_all_cases": "cell-based, human",
  "key": {"LUCAR-20SD cells": {"system": "LUCAR-20SD cells", "assay": "Effect of MTX concentration on proliferation of LUCAR-20SD cells in vitro (AOPI counting)", "source_text": "pLVX-Puro vector purchased from Clontech was subjected to the digestion reaction with ClaI and EcoRI restriction enzymes, and the CMV promoter was replaced with a human EFlapromoter (GenBank: J04617.1) to obtain the pLVX-hEF1α vector. The gene of DHFR L22F/F31S (SEQ ID NO: 1) was inserted between SIV NEF M116 and CD20 CAR of LCAR-UL186S, which was disclosed in PCT patent applications No. PCT/CN2020/112181 and PCT/CN2020/112182. The fusion gene sequence of SIV Nef_M116-P2A-DHFR L22F/F31S-IRES-CD8α SP-CD20 scFv (Leu16)-CD8α Hinge-CD8α TM-4-1BB-ITAM010, hereinafter referred to as “LUCAR-20SD” (SEQ ID NO: 4) was cloned into the expression plasmid pLVX-hEF1α to form the LUCAR-20SD expression plasmid named as M1586. The recombinant expression plasmid M1586 was extracted, mixed with psPAX2 and pMD2. G helper plasmids in a certain proportion, and co-transfected into HEK 293T cells. After 60 h of transfection, the cell culture supernatant containing the virus was collected and centrifuged at 4° C. and 3000 rpm for 5 min. After the supernatant was filtered through a 0.45 μm filter, the 500 KD hollow fiber membrane column tangential flow technique was used to further concentrate to prepare a lentivirus concentrate, which was stored at-80° C. for later use.\n50 mL of fresh peripheral blood of volunteers was extracted, and mixed with lymphocyte separation medium. The peripheral blood mononuclear cells (PBMC) were separated by density gradient centrifugation. The cells were labeled with magnetic beads using Pan T Cell Isolation Kit (Miltenyi Biotech), and T lymphocytes were isolated and purified, and then activated by CD3/CD28 magnetic beads. After culturing for 24 hours in a 37° C., 5% CO2 incubator, 5×10^6 activated T lymphocytes were infected with the lentiviral vector of LUCAR-20SD. […]\nCultured with the addition of methotrexate (MTX) at the concentrations of 0 μM, 0.01 μM, 0.05 μM, 0.1 μM, 1 μM, or 2 μM, the cell number of LUCAR-20SD cells at day0 day3 day6 day9, day 12, and the cell number of CAR-γδT cells at day0 day2 day5 day7 were counted by AOPI. […]"}, "[1]": {"system": "untransduced T cells (UnT)", "assay": "In vitro mixed lymphoid (MLR) model with CAR-γδT cells, UnT and U937 cells: host UnT cells", "conditions": "0.05 μM and 0.5 μM MTX; mixed culture with CAR-γδT and U937 cells", "description": "(§1) To evaluate the ability of γδ T cells to tolerate allogeneic T cell rejection, an in vitro mixed lymphoid (MLR) model was established.\n(§2) Using the T cells from a random healthy donor (B donor), CAR-γδT cells were prepared following the method in Example 1, as the graft cells. Un-transduced T cells (UnT) from another random healthy donor (T cell donor A) were also prepared, as the host cells.\n(§3) The density of CLL1 positive human lymphoma cells (U937) was adjusted to 1×10^6 cells/mL. U937 cells were treated with 20 μg/mL mitomycin at 37° C. for 3 h, washed three times with 10 mL DPBS, and suspended in the culture medium. 20×10^6 untransduced T cells (UnT, T cell donor A), 1×10^6 CAR-γδT cells (T cell donor B), and 5×10^6 treated human lymphoma cells U937 were mixed and cultured in the medium. The cell mixture was divided into 3 groups, and 0 μM, 0.05 μM MTX, or 0.5 μM MTX was added, respectively. […] CAR-γδT cells were stimulated repeatedly with U937 cells at day0, day4, day7 at an E/T ratio of 1:1 According to the formula: fold change of cell number (UnT)=[cell number counted by AOPI×(CD3-/TCR VY9+%)]/20, fold change of cell number (CAR-γδT)=[cell number counted by AOPI×(CD3+/TCR Vγ9+%)]/1, the cell proliferation curves of UnT and CAR-γδT cells were plotted."}, "CAR-γδT cells [2]": {"system": "CAR-γδT cells", "assay": "In vitro mixed lymphoid (MLR) model with CAR-γδT cells, UnT and U937 cells: graft CAR-γδT cells", "conditions": "0.05 μM and 0.5 μM MTX", "description": "as §1, §2, §3"}, "CAR-γδT cells [3]": {"system": "CAR-γδT cells", "assay": "Effect of MTX concentration on proliferation of CAR-γδT cells in vitro (AOPI counting)", "description": "50 mL of fresh peripheral blood of volunteers was extracted, mixed with lymphocyte separation medium, and then peripheral blood mononuclear cells (PBMC) were separated by density gradient centrifugation. The isolated lymphocytes were overnight cultured in RPMI 1640 medium, supplemented with L-glutamine (2 mM, Sigma-Aldrich), penicillin (100 IU/mL)/streptomycin (100 μg/mL) (Sigma-Aldrich, Missouri, USA), 10% serum (Gibco, Massachusetts, USA), zoledronic acid (5 μM, Actavis, New Jersey, USA), IL-2 (100 IU/mL; Aldesleukin, Novartis, Frimley, UK). The γδT cells selected above were transduced with lentiviral vector expressing an anti-CLL1 CAR and DHFR L22F/F31S at a multiplicity of infection (MOI) of 5. After 48 hours of transduction, IL-2 (100 IU/mL) was added every 2-3 days to expand T cells expressing the anti-CLL1 CAR (hereinafter referred to as CAR-γδT cells).\nCultured with the addition of methotrexate (MTX) at the concentrations of 0 μM, 0.01 μM, 0.05 μM, 0.1 μM, 1 μM, or 2 μM, the cell number of LUCAR-20SD cells at day0 day3 day6 day9, day 12, and the cell number of CAR-γδT cells at day0 day2 day5 day7 were counted by AOPI. Cell proliferation curves were plotted separately."}},
  "data": [
    {"smiles": "CN(Cc1cnc2nc(N)nc(N)c2n1)c1ccc(C(=O)N[C@@H](CCC(=O)O)C(=O)O)cc1", "note": "[MTX, methotrexate]", "values": [
      {"measurement": "proliferation of LUCAR-20SD cells compared with 0 μM MTX", "setting": "LUCAR-20SD cells; 0.01 μM to 1 μM MTX, day 12, p>0.05", "value": "no significant difference in cell proliferation"},
      {"measurement": "proliferation of LUCAR-20SD cells compared with 0 μM MTX", "setting": "LUCAR-20SD cells; 2 μM MTX, day 12, p<0.05", "value": "decreased significantly"},
      {"measurement": "minimal effective concentration", "setting": "LUCAR-20SD cells; Homo sapiens, 288 h, day 12, read-out: MTX concentration that affects the proliferation of LUCAR-20SD cells", "value": "≥ 2", "unit": "µM"},
      {"measurement": "proliferation of UnT cells", "setting": "[1]", "value": "significantly inhibited"},
      {"measurement": "protective effect on heterologous CAR-γδT cells", "setting": "CAR-γδT cells [2]", "value": "good protective effect on heterologous CAR-γδT cells"},
      {"measurement": "proliferation of CAR-γδT cells compared with 0 μM MTX", "setting": "CAR-γδT cells [3]; 0.01 μM to 0.1 μM MTX, day 7, p>0.05", "value": "not significantly different"},
      {"measurement": "proliferation of CAR-γδT cells compared with 0 μM MTX", "setting": "CAR-γδT cells [3]; 1 μM MTX and 2 μM MTX, day 7, p<0.05, dose-dependent", "value": "significantly decreased"},
      {"measurement": "minimal effective concentration", "setting": "CAR-γδT cells [3]; Homo sapiens, 168 h, day 7, read-out: MTX concentration that affects the proliferation of CAR-γδT cells", "value": "≥ 1", "unit": "µM"}
    ]}
  ]
}
